Patent US12252524B2, “GIP/GLP1 co-agonist compounds” (Eli Lilly and Company, priority 2018, dated 2025)
Numbered stars: 1 amine (or outer) side, 2 acyl side, 3 side chain; on linkers, the order of the positions; unused ones are H or OH. Square brackets hold non-standard residues; d marks the D form. Side chains are listed from the residue outwards. Peptide text beside a SMILES is read from it. * marks the point of attachment. C18 diacid = O=C(O)CCCCCCCCCCCCCCCCC(=O)*; αMePhe(2-F) = C[C@](N)(Cc1ccccc1F)C(=O)O; γGlu = O=C(O)[C@H](CCC(=O)[*:2])N[*:1]; αMeY = C[C@](N)(Cc1ccc(O)cc1)C(=O)O; 4Pal = N[C@@H](Cc1ccncc1)C(=O)O; αMeL = CC(C)C[C@](C)(N)C(=O)O; Orn = NCCC[C@H](N)C(=O)O; AEEA = NCCOCCOCC(=O)O; Aib = CC(C)(N)C(=O)O

What was measured:
[1] = biological target: T1, human Gcg receptor (Homo sapiens, UniProt P47871); test: [125I]-Glucagon binding (SPA), human Gcg receptor; conditions: read-out: hGLcgR Ki, nM (SEM, n)
T1 construct: expressed in transfected cells; crude membranes
In short: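 Cell pellets were lysed in hypotonic Tris buffer, pH 7.5, homogenized, and spun at low then high speed to give crude membranes. Ki was derived from the fitted IC50.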

[2] = biological target: T2, human GIP receptor (Homo sapiens, UniProt P48546); test: [125I]-GIP binding (SPA), human GIP receptor; conditions: read-out: hGIPR Ki, nM (SEM, n)
T2 construct: expressed in transfected cells; crude membranes
T2 sequence (P48546 22-466): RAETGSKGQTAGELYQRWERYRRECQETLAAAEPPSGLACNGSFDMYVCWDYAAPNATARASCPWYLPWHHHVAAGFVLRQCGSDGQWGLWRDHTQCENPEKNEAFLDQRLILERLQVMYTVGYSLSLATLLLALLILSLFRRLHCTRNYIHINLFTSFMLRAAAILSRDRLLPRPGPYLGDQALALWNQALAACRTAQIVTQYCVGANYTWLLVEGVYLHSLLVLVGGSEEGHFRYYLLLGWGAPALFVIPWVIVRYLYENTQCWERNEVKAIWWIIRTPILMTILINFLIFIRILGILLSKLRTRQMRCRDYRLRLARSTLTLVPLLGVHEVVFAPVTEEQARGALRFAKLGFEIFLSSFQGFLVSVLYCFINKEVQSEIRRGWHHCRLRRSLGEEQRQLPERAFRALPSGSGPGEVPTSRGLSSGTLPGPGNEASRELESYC

[3] = biological target: human GLP-1 receptor (GLP-1R) (Homo sapiens, UniProt P43220); test: cAMP pharmacological functional assay in presence of casein, hGLP-1R; type: cell-based; conditions: HEK293 cells expressing hGLP-1R, 0.1% Casein, geometric mean; read-out: hGLP1R cAMP Rel EC50 nM (SEM, n)
[4] = biological target: T3, gastric inhibitory peptide receptor (GIPR) (Homo sapiens, UniProt P48546); test: cAMP pharmacological functional assay in presence of casein, hGIPR; type: cell-based; conditions: HEK293 cells expressing hGIPR, 0.1% Casein, geometric mean; read-out: hGIPR cAMP Rel EC50 nM (SEM, n)
T3 sequence (P48546 22-466): T2 sequence (P48546 22-466)

[5] = biological target: human GLP-1R (Homo sapiens, UniProt P43220); test: [125I]-GLP-1 binding (SPA), human GLP-1 receptor; parameters: expressed in transfected cells; crude membranes; conditions: read-out: hGLP1R Ki, (nM) (SEM, n)
In short: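 Crude-membrane binding assay; one membrane prep included 1 mM MgCl2 and 25 units/ml DNAse I during lysis. Assay buffer at pH 7.4 contains 0.1% (w/v) bacitracin and 0.003% (w/v) TWEEN-20. Ki is reported as geometric mean.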

Chain of human GLP-1 receptor (GLP-1R) (P43220 24-463): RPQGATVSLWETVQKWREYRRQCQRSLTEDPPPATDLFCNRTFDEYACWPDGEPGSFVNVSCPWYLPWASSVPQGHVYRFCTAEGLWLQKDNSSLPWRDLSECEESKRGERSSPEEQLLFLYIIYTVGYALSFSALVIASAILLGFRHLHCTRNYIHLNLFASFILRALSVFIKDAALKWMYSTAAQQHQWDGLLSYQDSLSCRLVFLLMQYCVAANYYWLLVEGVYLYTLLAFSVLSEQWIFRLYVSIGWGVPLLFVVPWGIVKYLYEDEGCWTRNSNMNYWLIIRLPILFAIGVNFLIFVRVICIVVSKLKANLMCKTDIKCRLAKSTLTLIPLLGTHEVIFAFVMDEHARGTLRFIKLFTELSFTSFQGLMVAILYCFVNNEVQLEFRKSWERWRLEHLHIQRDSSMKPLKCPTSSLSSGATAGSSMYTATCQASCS
Chain of human GLP-1R (P43220 24-463): as above
T1 sequence (P47871 26-477): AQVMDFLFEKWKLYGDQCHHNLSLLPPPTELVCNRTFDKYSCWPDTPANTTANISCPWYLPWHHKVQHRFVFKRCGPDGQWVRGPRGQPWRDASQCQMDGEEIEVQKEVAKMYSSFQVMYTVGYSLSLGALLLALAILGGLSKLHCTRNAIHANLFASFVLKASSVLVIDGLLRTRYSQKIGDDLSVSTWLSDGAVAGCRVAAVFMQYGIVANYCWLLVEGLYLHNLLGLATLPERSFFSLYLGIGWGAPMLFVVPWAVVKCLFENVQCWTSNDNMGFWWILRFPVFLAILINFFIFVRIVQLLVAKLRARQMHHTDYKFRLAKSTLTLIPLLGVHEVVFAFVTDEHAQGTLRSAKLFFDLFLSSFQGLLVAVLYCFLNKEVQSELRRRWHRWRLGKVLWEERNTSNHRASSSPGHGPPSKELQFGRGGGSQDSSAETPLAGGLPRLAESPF

Row | SMILES | Ki [1] [nM] | Ki [2] [nM] | EC50 [3] [nM] | EC50 [4] [nM] | Ki [5] [nM]
1 | CC[C@H](C)[C@H](NC(=O)[C@H](CC(C)C)NC(=O)[C@](C)(Cc1ccc(O)cc1)NC(=O)[C@@H](CCC(=O)O)NC(=O)[C@@H](NC(=O)[C@H](Cc1ccccc1)NC(=O)[C@H](CCC(=O)O)NC(=O)C(C)(C)NC(=O)[C@H](CCC(N)=O)NC(=O)[C@H](C)NC(=O)[C@H](CCCCNC(=O)COCCOCCNC(=O)COCCOCCNC(=O)CC[C@H](NC(=O)CCCCCCCCCCCCCCCCC(=O)O)C(=O)O)NC(=O)[C@H](CCCN)NC(=O)[C@H](CC(=O)O)NC(=O)[C@H](CC(C)C)NC(=O)[C@](C)(CC(C)C)NC(=O)[C@@H](NC(=O)[C@H](CO)NC(=O)[C@H](C)NC(=O)[C@H](CC(=O)O)NC(=O)[C@H](CO)NC(=O)[C@@H](NC(=O)[C@](C)(Cc1ccccc1F)NC(=O)[C@@H](NC(=O)CNC(=O)[C@H](CCC(=O)O)NC(=O)C(C)(C)NC(=O)[C@@H](N)Cc1ccc(O)cc1)[C@@H](C)O)[C@@H](C)O)[C@@H](C)CC)[C@@H](C)CC)C(=O)N[C@@H](CCC(=O)O)C(=O)NCC(=O)NCC(=O)N1CCC[C@H]1C(=O)N[C@@H](CO)C(=O)N[C@@H](CO)C(=O)NCC(=O)N[C@@H](C)C(=O)N1CCC[C@H]1C(=O)N1CCC[C@H]1C(=O)N1CCC[C@H]1C(=O)N[C@@H](CO)C(N)=O [Example 237] (H-Y[Aib]EGT[αMePhe(2-F)]TSDASI[αMeL]LD[Orn]K([AEEA-AEEA-γGlu-C18 diacid])AQ[Aib]EFI[dE][αMeY]LIEGGPSSGAPPPS-NH2) | > 1060 | 0.131 | 0.0187 | 0.0883 | 1.04
2 | CC[C@H](C)[C@H](NC(=O)[C@H](CC(C)C)NC(=O)[C@](C)(Cc1ccc(O)cc1)NC(=O)[C@@H](CCC(=O)O)NC(=O)[C@@H](NC(=O)[C@H](Cc1ccccc1)NC(=O)[C@H](CCC(=O)O)NC(=O)C(C)(C)NC(=O)[C@H](CCC(N)=O)NC(=O)[C@H](C)NC(=O)[C@H](CCCCNC(=O)COCCOCCNC(=O)COCCOCCNC(=O)CC[C@H](NC(=O)CCCCCCCCCCCCCCCCC(=O)O)C(=O)O)NC(=O)[C@H](CCCN)NC(=O)[C@H](CC(=O)O)NC(=O)[C@H](CC(C)C)NC(=O)[C@](C)(CC(C)C)NC(=O)[C@@H](NC(=O)[C@H](CO)NC(=O)[C@H](CC(C)C)NC(=O)[C@H](CC(=O)O)NC(=O)[C@H](CO)NC(=O)[C@@H](NC(=O)[C@](C)(Cc1ccccc1F)NC(=O)[C@@H](NC(=O)CNC(=O)[C@H](CCC(=O)O)NC(=O)C(C)(C)NC(=O)[C@@H](N)Cc1ccc(O)cc1)[C@@H](C)O)[C@@H](C)O)[C@@H](C)CC)[C@@H](C)CC)C(=O)N[C@@H](CCC(=O)O)C(=O)NCC(=O)NCC(=O)N1CCC[C@H]1C(=O)N[C@@H](CO)C(=O)N[C@@H](CO)C(=O)NCC(=O)N[C@@H](C)C(=O)N1CCC[C@H]1C(=O)N1CCC[C@H]1C(=O)N1CCC[C@H]1C(=O)N[C@@H](CO)C(N)=O [Example 238] (H-Y[Aib]EGT[αMePhe(2-F)]TSDLSI[αMeL]LD[Orn]K([AEEA-AEEA-γGlu-C18 diacid])AQ[Aib]EFI[dE][αMeY]LIEGGPSSGAPPPS-NH2) | 230 | 0.0403 | 0.0241 | 0.0296 | 0.548
3 | CC[C@H](C)[C@H](NC(=O)[C@H](CC(C)C)NC(=O)[C@](C)(Cc1ccc(O)cc1)NC(=O)[C@@H](CCC(=O)O)NC(=O)[C@@H](NC(=O)[C@H](Cc1ccccc1)NC(=O)[C@@H](NC(=O)C(C)(C)NC(=O)[C@H](CCC(N)=O)NC(=O)[C@H](C)NC(=O)[C@H](CCCCNC(=O)COCCOCCNC(=O)COCCOCCNC(=O)CC[C@H](NC(=O)CCCCCCCCCCCCCCCCC(=O)O)C(=O)O)NC(=O)[C@H](CCCN)NC(=O)[C@H](CC(=O)O)NC(=O)[C@H](CC(C)C)NC(=O)[C@](C)(CC(C)C)NC(=O)[C@@H](NC(=O)[C@H](CO)NC(=O)[C@H](Cc1ccncc1)NC(=O)[C@H](CC(=O)O)NC(=O)[C@H](CO)NC(=O)[C@@H](NC(=O)[C@](C)(Cc1ccccc1F)NC(=O)[C@@H](NC(=O)CNC(=O)[C@H](CCC(=O)O)NC(=O)C(C)(C)NC(=O)[C@@H](N)Cc1ccc(O)cc1)[C@@H](C)O)[C@@H](C)O)[C@@H](C)CC)[C@@H](C)O)[C@@H](C)CC)C(=O)N[C@@H](CCC(=O)O)C(=O)NCC(=O)NCC(=O)N1CCC[C@H]1C(=O)N[C@@H](CO)C(=O)N[C@@H](CO)C(=O)NCC(=O)N[C@@H](C)C(=O)N1CCC[C@H]1C(=O)N1CCC[C@H]1C(=O)N1CCC[C@H]1C(=O)N[C@@H](CO)C(N)=O [Example 239] (H-Y[Aib]EGT[αMePhe(2-F)]TSD[4Pal]SI[αMeL]LD[Orn]K([AEEA-AEEA-γGlu-C18 diacid])AQ[Aib]TFI[dE][αMeY]LIEGGPSSGAPPPS-NH2; N-terminus assumed) | 596 | 0.101 | 0.0376 | 0.0353 | 2.71
4 | CC[C@H](C)[C@H](NC(=O)[C@H](CC(C)C)NC(=O)[C@](C)(Cc1ccc(O)cc1)NC(=O)[C@@H](CCC(=O)O)NC(=O)[C@@H](NC(=O)[C@H](Cc1ccccc1)NC(=O)[C@H](C)NC(=O)C(C)(C)NC(=O)[C@H](CCC(N)=O)NC(=O)[C@H](C)NC(=O)[C@H](CCCCNC(=O)COCCOCCNC(=O)COCCOCCNC(=O)CC[C@H](NC(=O)CCCCCCCCCCCCCCCCC(=O)O)C(=O)O)NC(=O)[C@H](CCCN)NC(=O)[C@H](CC(=O)O)NC(=O)[C@H](CC(C)C)NC(=O)[C@](C)(CC(C)C)NC(=O)[C@@H](NC(=O)[C@H](CO)NC(=O)[C@H](Cc1ccncc1)NC(=O)[C@H](CC(=O)O)NC(=O)[C@H](CO)NC(=O)[C@@H](NC(=O)[C@](C)(Cc1ccccc1F)NC(=O)[C@@H](NC(=O)CNC(=O)[C@H](CCC(=O)O)NC(=O)C(C)(C)NC(=O)[C@@H](N)Cc1ccc(O)cc1)[C@@H](C)O)[C@@H](C)O)[C@@H](C)CC)[C@@H](C)CC)C(=O)N[C@@H](CCC(=O)O)C(=O)NCC(=O)NCC(=O)N1CCC[C@H]1C(=O)N[C@@H](CO)C(=O)N[C@@H](CO)C(=O)NCC(=O)N[C@@H](C)C(=O)N1CCC[C@H]1C(=O)N1CCC[C@H]1C(=O)N1CCC[C@H]1C(=O)N[C@@H](CO)C(N)=O [Example 240] (H-Y[Aib]EGT[αMePhe(2-F)]TSD[4Pal]SI[αMeL]LD[Orn]K([AEEA-AEEA-γGlu-C18 diacid])AQ[Aib]AFI[dE][αMeY]LIEGGPSSGAPPPS-NH2) | 204 | 0.0284 | 0.0393 | 0.0223 | 0.552
5 | CC[C@H](C)[C@H](NC(=O)[C@H](CC(C)C)NC(=O)[C@](C)(Cc1ccc(O)cc1)NC(=O)[C@@H](CCC(=O)O)NC(=O)[C@@H](NC(=O)[C@H](Cc1ccccc1)NC(=O)[C@@H](NC(=O)C(C)(C)NC(=O)[C@H](CCC(N)=O)NC(=O)[C@H](C)NC(=O)[C@H](CCCCNC(=O)COCCOCCNC(=O)COCCOCCNC(=O)CC[C@H](NC(=O)CCCCCCCCCCCCCCCCC(=O)O)C(=O)O)NC(=O)[C@H](CCCN)NC(=O)[C@H](CC(=O)O)NC(=O)[C@H](CC(C)C)NC(=O)[C@](C)(CC(C)C)NC(=O)[C@@H](NC(=O)[C@H](CO)NC(=O)[C@@H](NC(=O)[C@H](CC(=O)O)NC(=O)[C@H](CO)NC(=O)[C@@H](NC(=O)[C@](C)(Cc1ccccc1F)NC(=O)[C@@H](NC(=O)CNC(=O)[C@H](CCC(=O)O)NC(=O)C(C)(C)NC(=O)[C@@H](N)Cc1ccc(O)cc1)[C@@H](C)O)[C@@H](C)O)C(C)C)[C@@H](C)CC)[C@@H](C)O)[C@@H](C)CC)C(=O)N[C@@H](CCC(=O)O)C(=O)NCC(=O)NCC(=O)N1CCC[C@H]1C(=O)N[C@@H](CO)C(=O)N[C@@H](CO)C(=O)NCC(=O)N[C@@H](C)C(=O)N1CCC[C@H]1C(=O)N1CCC[C@H]1C(=O)N1CCC[C@H]1C(=O)N[C@@H](CO)C(N)=O [Example 241] (H-Y[Aib]EGT[αMePhe(2-F)]TSDVSI[αMeL]LD[Orn]K([AEEA-AEEA-γGlu-C18 diacid])AQ[Aib]TFI[dE][αMeY]LIEGGPSSGAPPPS-NH2; N-terminus assumed) | 167 | 0.042 | 0.0175 | 0.0257 | 0.799
